Assay results reported in PMC9396613 (ACS chemical biology, 2022).
One block for each molecule: values may come before it. Bridge positions count the residues as written; N and C are the ends. Ends that are not written are not given here.

Key:
[1] = tested on: ET cells; assay: Cilia length measurement in ET cells by immunostaining; type: cell-based, mouse
[2] = target: T1, KCa2.3 channels (Homo sapiens, UniProt Q9UGI6); assay: Inside-out patch clamp, inhibition of KCa2.3 channels by negative modulator; type: cell-based; details: read-out: IC50 for inhibition of KCa2.3 channels; 0.5 μM Ca2+; mean ± SD, n = 5
[3] = tested on: ET cells; assay: Flow-induced cytosolic Ca2+ measurements (Fura-2AM) in ET cells; type: cell-based, mouse; details: 20 μM
[4] = tested on: rat KCa2.2a channels; details: read-out: EC50 on rat KCa2.2a (mean ± SD); cited from earlier work
[5] = target: T1, KCa2.3 channels; assay: Inside-out patch clamp, potentiation of human KCa2.3 channels expressed in HEK293 cells; type: cell-based

- IC50 [2]: 970 ± 390 nM
Molecule: CC(=O)Nc1cccc2[nH]c(N[C@H](C)c3cccc(C(F)(F)F)c3)nc12 [AP14145]
- cilia length ([1]; 20 μM for two days, acetylated-α-tubulin staining, mean ± SD): 2.8 ± 0.1 μm
- flow-induced peak Ca2+ values compared with control [3]: reduced
- flow-induced cytosolic Ca2+ transients compared with control ([3]; shear stress 5 dyn/cm2): much weaker Ca^2+ transients

- Emax on KCa2.3 channels (I / Imax (%)) ([5]; current at −90 mV normalized to that obtained at 10 μM Ca2+, mean ± SD): 96 ± 10%
- selectivity for human KCa2.3 channels over rat KCa2.2a channels ([5]; ratio of EC50 values, Table 1): ~ 2.7 fold
- EC50 ([5]; read-out: EC50 on human KCa2.3 (mean ± SD), inside-out patch, HEK293 cells, 0.15 μM Ca2+, currents at −90 mV, mean ± SD): 2700 ± 600 nM
Molecule: Cc1cc(NC2CCCCC2)nc(-n2nc(C)cc2C)n1 [CyPPA]
- EC50 [4]: 7500 ± 1600 nM

Molecule: Cc1cc(C)n(-c2nc(Nc3ccc(Cl)cc3)c3ncn(C)c3n2)n1 [NS13001]
- EC50 [4]: 2200 ± 500 nM

Molecule: apamin (CNCKAPETALCARRCQQH-NH2; disulfide 1-11, 3-15; UniProt P01500 28-45, looked up)
- effect on cilia elongation by compound 4 ([1]; apamin 50 nM with compound 4 20 μM, Arl13b marker): completely abolished the elongating effect
